# Source: patent publication US12575567B2, “Fungicidal compositions” (priority 2020, dated 2026)
# “And” between values parts separate entries of the source, which are not always exact repeats. Equal entries are not always repeated. Numbered stars: 1 amine (or outer) side, 2 acyl side, 3 side chain; on linkers, the order of the positions; unused ones are H or OH. Square brackets hold non-standard residues; d marks the D form. Peptide text beside a SMILES is read from it. X1 = CC[C@@H](C)[C@@H](O[*:1])C(=O)[*:2]; NMeVal(β-OH) = CN[C@H](C(=O)O)C(C)(C)O; NMeF = CN[C@@H](Cc1ccccc1)C(=O)O; aIle = CC[C@@H](C)[C@H](N)C(=O)O; NMeV = CN[C@H](C(=O)O)C(C)C
# Key:
# [1] = system: Botrytis cinerea; experiment: Liquid culture test in well plates, Botrytis cinerea (Gray Mould), Example 1-1; type: cell-based; conditions: 72 hours; for (A) inhibition: Aureobasidin A alone
# Experimental: (§1) Mycelia fragments or conidia suspensions of a fungus, prepared either freshly from liquid cultures of the fungus or from cryogenic storage, are directly mixed into nutrient broth. DMSO solutions of the test compound (max. 10 mg/mL) is diluted with 0.025% Tween20 by factor 50 and 10 μL of this solution is pipetted into a microtiter plate (96-well format). […] The test plates are incubated in the dark at 24° C. and 96% relative humidity (rh). The inhibition of fungal growth is determined photometrically and visually after 3-7 days, depending on the pathosystem, and percent antifungal activity relative to the untreated check is calculated.
# Conidia of the fungus from cryogenic storage were directly mixed into nutrient broth (PDB potato dextrose broth). After placing a DMSO solution of the test compositions into a microtiter plate (96-well format), the nutrient broth containing the fungal spores was added.
# [2] = system: Alternaria solani; experiment: Liquid culture test in well plates, Alternaria solani (Early Blight of Tomato/Potato), Example 1-2; type: cell-based; conditions: 48 hours; for (A) inhibition: Aureobasidin A alone
# Experimental: as §1, with “The inhibition of fungal growth is determined photometrically and visually after 3-7 days, depending on the pathosystem, and percent antifungal activity relative to the untreated check is calculated.” left out
# Conidia of the fungus from cryogenic storage were directly mixed into nutrient broth (PDB potato dextrose broth). After placing a DMSO solution of the test compositions into a microtiter plate (96-well format) the nutrient broth containing the fungal spores was added.
# [3] = component (B) alone, 0.1250 ppm
# [4] = component (B) alone, 0.0031 ppm
# [5] = component (B) alone, 0.0250 ppm
# [6] = component (B) alone, 0.0016 ppm
# [7] = component (B) alone, 0.0125 ppm
# [8] = Alternaria solani, component (B) alone
smiles,measurement,setting,value
"CO/C=C(/C(=O)OC)c1ccccc1Oc1cc(Oc2ccccc2C#N)ncn1 [Azoxystrobin, azoxystrobin]",(B) inhibition,"[1]; component (B) alone, 0.0313 ppm",31%
same,(B) inhibition,[1]; [3],61%
"COc1ccnc(C(=O)N[C@@H](C)C(=O)O[C@@H](C)C(c2ccc(F)cc2)c2ccc(F)cc2)c1OC(C)=O [Florylpicoxamid, florylpicoxamid]",(B) inhibition,"[1]; component (B) alone, 0.0625 ppm",56%
same,(B) inhibition,[1]; [3],59%
"O=[N+]([O-])c1cc(C(F)(F)F)c(Cl)c([N+](=O)[O-])c1Nc1ncc(C(F)(F)F)cc1Cl [Fluazinam, fluazinam]",inhibition at 0.0006 ppm,"[1]; Botrytis cinerea, component (B) alone, 0.0006 ppm",3%
same,inhibition at 0.0012 ppm,"[1]; Botrytis cinerea, component (B) alone, 0.0012 ppm",6%
same,inhibition at 0.0025 ppm,"[1]; Botrytis cinerea, component (B) alone, 0.0025 ppm",8%
same,inhibition at 0.005 ppm,"[1]; Botrytis cinerea, component (B) alone, 0.0050 ppm",6%
same,inhibition at 0.01 ppm,"[1]; Botrytis cinerea, component (B) alone, 0.0100 ppm",8%
same,inhibition at 0.0003 ppm,"[2]; Alternaria solani, component (B) alone, 0.0003 ppm",11%
same,inhibition at 0.0025 ppm,"[2]; Alternaria solani, component (B) alone, 0.0025 ppm",11%
same,inhibition at 0.005 ppm,"[2]; Alternaria solani, component (B) alone, 0.0050 ppm",11%
"Cn1cc(C(=O)Nc2cccc3c2[C@@H]2CC[C@H]3C2=C(Cl)Cl)c(C(F)F)n1 (racemic) [Benzovindiflupyr, benzovindiflupyr]",(B) inhibition,[1]; [4],26%
same,(B) inhibition,[1]; [5],57%
CC[C@@H](C)[C@@H]1NC(=O)[C@@H]2CCCN2C(=O)[C@H](Cc2ccccc2)N(C)C(=O)[C@H](Cc2ccccc2)NC(=O)[C@H](C(C)C)N(C)C(=O)[C@@H]([C@H](C)CC)OC(=O)[C@H](C(C)(C)O)N(C)C(=O)[C@H](CC(C)C)NC(=O)[C@H](C(C)C)N(C)C1=O [Aureobasidin A] (cyclo(F[NMeF]P[aIle][NMeV]L[NMeVal(β-OH)][X1][NMeV])),(A) inhibition,[1]; 0.0002 ppm,0%
same,(A) inhibition,[1]; 0.0003 ppm,0% and 3%
same,(A) inhibition,[1]; 0.0006 ppm,0%
same,(A) inhibition,[1]; 0.0012 ppm,0% and 7% and 8%
same,(A) inhibition,[1]; 0.0100 ppm,23% and 25% and 24%
same,(A) inhibition,[1]; 0.0200 ppm,38% and 50% and 33%
same,(A) inhibition,[1]; 0.040 ppm,85%
same,(A) inhibition,[2]; 0.0001 ppm,8% and 2% and 0%
same,(A) inhibition,[2]; 0.0002 ppm,2% and 0%
same,(A) inhibition,[2]; 0.0003 ppm,0% and 3%
same,(A) inhibition,[2]; 0.0006 ppm,9% and 6% and 0%
same,(A) inhibition,[2]; 0.0012 ppm,0%
same,(A) inhibition,[2]; 0.0025 ppm,2% and 1% and 0%
same,(A) inhibition,[2]; 0.005 ppm,12%
same,(A) inhibition,[2]; 0.0100 ppm,0%
same,(A) inhibition,[2]; 0.040 ppm,46%
"CC(C)c1ccc(Cl)cc1CN(C(=O)c1c(C(F)F)nn(C)c1F)C1CC1 [Isoflucypram, isoflucypram, reference compound]",(B) inhibition,[1]; [4],37%
same,(B) inhibition,[2]; [6],22%
"CON(C(=O)c1cn(C)nc1C(F)F)C(C)Cc1c(Cl)cc(Cl)cc1Cl (stereo not shown) [Pydiflumetofen, pydiflumetofen, reference compound]",(B) inhibition,[1]; [6],27%
same,(B) inhibition,"[2]; component (B) alone, 0.0008 ppm",28%
same,(B) inhibition,[2]; [4],71%
"Cc1cccc(-n2nnn(C)c2=O)c1COc1ccn(-c2ccc(Cl)cc2)n1 [Metyltetrapole, metyltetrapole]",(B) inhibition,[1]; [7],43%
same,(B) inhibition,[1]; [5],56%
same,(B) inhibition,[2]; [7],73%
"O=C(NCCc1ncc(C(F)(F)F)cc1Cl)c1ccccc1C(F)(F)F [Fluopyram, fluopyram, reference compound]",inhibition at 0.125 ppm,"[1]; Botrytis cinerea, component (B) alone, 0.1250 ppm",42%
same,inhibition at 0.0313 ppm,[2]; [8],49%
same,inhibition at 0.0625 ppm,"[2]; Alternaria solani, component (B) alone, 0.0625 ppm",63%
"CON=C(C(=O)OC)c1ccccc1CON=C(C)c1cccc(C(F)(F)F)c1 [Trifloxystrobin, trifloxystrobin, reference compound]",inhibition at […],"[2]; Alternaria solani, component (B) alone, 0.0078 ppm",44%
same,inhibition at 0.0313 ppm,[2]; [8],71%
